Experimental data: patent US20140349994A1, “Novel 2-Amino-4,5,6,8-Tetrahydropyrazolo[3,4-b]Thiazolo [4,5-d]Azepine Derivatives and Their Use as Allosteric Modulators of Metabotropic Glutamate Receptors” (Addex Pharma S.A., priority 2012, published 2014)

Assays:
[1] = target: T1, recombinant human mGluR4a receptors (Homo sapiens, UniProt Q14833); test: mGluR4 assay on HEK-expressing human mGluR4: fluorescent cell based Ca2+ mobilization assay (FLIPR); conditions: HEK-293 cells expressing hmGluR4; enhancement of EC25 glutamate response; mean of at least three independent experiments in duplicate; read-out: Ca^2+ Flux (mean EC50)
T1 construct: expressed in transfected cells
Text: mGluR4 Assay on HEK-Expressing Human mGluR4
The compounds of the present invention are positive allosteric modulators of mGluR4 receptor. Their activity was examined on recombinant human mGluR4a receptors by detecting changes in intracellular Ca^2+ concentration, using the fluorescent Ca^2+-sensitive dye Fluo4-(AM) and a Fluorometric Imaging Plate Reader (FLIPR, Molecular Devices, Sunnyvale, Calif.).
The cDNA encoding the human metabotropic glutamate receptor (hmGluR4), (accession number NM 000841.1, NCBI Nucleotide database browser), was subcloned into an expression vector containing also the hygromycin resistance gene. In parallel, the cDNA encoding a G protein allowing redirection of the activation signal to intracellular calcium flux was subcloned into a different expression vector containing also the puromycin resistance gene. Transfection of both these vectors into HEK293 cells with PolyFect reagent (Qiagen) according to supplier's protocol, and hygromycin and puromycin treatment allowed selection of antibiotic resistant cells which had integrated stably one or more copies of the plasmids. Positive cellular clones expressing hmGluR4 were identified in a functional assay measuring changes in calcium fluxes in response to glutamate or selective known mGluR4 orthosteric agonists and antagonists.
HEK-293 cells expressing hmGluR4 were maintained in media containing DMEM, dialyzed Fetal Calf Serum (10%), Glutamax™ (2 mM), Penicillin (100 units/mL), Streptomycin (100 μg/mL), Geneticin (100 μg/mL) and Hygromycin-B (40 μg/mL) and puromycin (1 μg/mL) at 37° C.5% CO2.
Human mGluR4 HEK-293 cells were plated out 24 hours prior to FLIPR^384 assay in black-walled, clear-bottomed, poly-L-ornithine-coated 384-well plates at a density of 25,000 cells/well in a glutamine/glutamate free DMEM medium containing foetal bovine serum (10%), penicillin (100 units/mL) and streptomycin (100 μg/mL) at 37° C.5% CO2.
On the day of the assay, the medium was aspirated and the cells were loaded with a 3 μM solution of Fluo4-AM (LuBioScience, Lucerne, Switzerland) in 0.03% pluronic acid. After 1 hour at 37° C. 5% CO2, the non incorporated dye was removed by washing cell plate with the assay buffer and the cells were left in the dark at room temperature for six hours before testing. All assays were performed in a pH 7.4 buffered-solution containing 20 mM HEPES, 143 mM NaCl, 6 mM KCl, 1 mM MgSO4, 1 mM CaCl2, 0.125 mM sulfapyrazone and 0.1% glucose.
After 10 s of basal fluorescence recording, various concentrations of the compounds of the invention were added to the cells. Changes in fluorescence levels were first monitored for 180 s in order to detect any agonist activity of the compounds. Then the cells were stimulated by an EC25 glutamate concentration for an additional 110 s in order to measure enhancing activities of the compounds of the invention. EC25 glutamate concentration is the concentration giving 25% of the maximal glutamate response.
The concentration-response curves of representative compounds of the present invention were generated using the Prism GraphPad software (Graph Pad Inc, San Diego, USA). The curves were fitted to a four-parameter logistic equation:
(Y=Bottom+(Top-Bottom)(1+10̂((Log EC50−X)*Hill Slope)
allowing the determination of EC50 values.
The Table 3 below represents the mean EC50 obtained from at least three independent experiments of selected molecules performed in duplicate.

T1 sequence (Q14833 33-912): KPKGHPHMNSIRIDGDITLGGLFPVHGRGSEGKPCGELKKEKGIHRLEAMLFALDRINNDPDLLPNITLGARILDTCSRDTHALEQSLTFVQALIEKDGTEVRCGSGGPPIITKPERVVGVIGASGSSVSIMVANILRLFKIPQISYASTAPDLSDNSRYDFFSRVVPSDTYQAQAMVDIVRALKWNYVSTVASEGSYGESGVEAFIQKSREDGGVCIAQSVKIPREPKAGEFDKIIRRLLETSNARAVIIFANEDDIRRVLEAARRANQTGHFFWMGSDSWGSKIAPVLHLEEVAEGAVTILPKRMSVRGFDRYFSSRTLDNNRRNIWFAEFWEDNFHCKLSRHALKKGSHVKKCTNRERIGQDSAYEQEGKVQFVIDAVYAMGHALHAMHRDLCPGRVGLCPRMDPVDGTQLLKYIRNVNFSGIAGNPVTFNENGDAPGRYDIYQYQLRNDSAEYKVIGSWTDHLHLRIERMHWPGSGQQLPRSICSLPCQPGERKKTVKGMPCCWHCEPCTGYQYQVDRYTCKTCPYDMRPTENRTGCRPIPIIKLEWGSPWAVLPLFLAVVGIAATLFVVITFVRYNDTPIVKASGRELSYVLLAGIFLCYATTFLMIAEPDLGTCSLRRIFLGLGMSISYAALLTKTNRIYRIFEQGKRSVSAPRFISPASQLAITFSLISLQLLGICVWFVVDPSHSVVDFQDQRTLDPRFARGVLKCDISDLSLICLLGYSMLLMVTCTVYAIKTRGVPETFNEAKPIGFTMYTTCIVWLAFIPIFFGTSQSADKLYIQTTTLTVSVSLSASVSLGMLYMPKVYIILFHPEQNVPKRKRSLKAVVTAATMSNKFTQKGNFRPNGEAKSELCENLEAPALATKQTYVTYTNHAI

melting point [°C] | EC50 [1] [nM] | SMILES
– | 1000 to 10000 | Cc1nc(Nc2nc3c(s2)CCN(CC2CC2)c2[nH]ncc2-3)ns1 [Compound 1-3]
266 to 268 | < 100 | Fc1cnc(Nc2nc3c(s2)CCN(Cc2cc(C4CC4)no2)c2[nH]ncc2-3)nc1 [Compound 1-7]
229 to 232 | < 100 | Cc1ccnc(Nc2nc3c(s2)CCNc2[nH]ncc2-3)n1 [Compound 1-52]
212 to 215 | < 100 | COCC(C)N1CCc2sc(Nc3ncc(F)cn3)nc2-c2cn[nH]c21 (centres unmarked) [Compound 1-125]
229 to 231 | 100 to 1000 | Cc1cccc(Nc2nc3c(s2)CCN(C[C@@H]2CCCO2)c2[nH]ncc2-3)n1 [Compound 1-127]
246 | < 100 | CCOCCN1CCc2sc(Nc3ncc(F)cn3)nc2-c2cn[nH]c21 [Compound 1-134]
– | 100 to 1000 | Fc1cnc(Nc2nc3c(s2)CCN(CCN2CCOCC2)c2[nH]ncc2-3)nc1 [Compound 1-136, N-(5-Fluoropyrimidin-2-yl)-6-(2-morpholinoethyl)-4,5,6,8-tetrahydropyrazolo[3,4-b]thiazolo[4,5-d]azepin-2-amine]
283 to 286 | < 100 | FCCN1CCc2sc(Nc3ncc(F)cn3)nc2-c2cn[nH]c21 [Compound 1-137]
195 to 200 | 100 to 1000 | Cn1ccc(CN2CCc3sc(Nc4ncc(F)cn4)nc3-c3cn[nH]c32)n1 [Compound 1-139]
198 to 202 | < 100 | COCc1ccc(CN2CCc3sc(Nc4ncc(F)cn4)nc3-c3cn[nH]c32)nc1 [Compound 1-143]
> 290 | 1000 to 10000 | FCCCN1CCc2sc(Nc3ncc(F)cn3)nc2-c2cn[nH]c21 [Compound 1-149]
– | < 100 | Cc1noc(CN2CCc3sc(Nc4ncc(F)cn4)nc3-c3cn[nH]c32)n1 [Compound 1-150, N-(5-Fluoropyrimidin-2-yl)-6-((3-methyl-1,2,4-oxadiazol-5-yl)methyl)-4,5,6,8-tetrahydropyrazolo[3,4-b]thiazolo[4,5-d]azepin-2-amine]
272 to 273 | < 100 | O=S1(=O)CCN(CCCN2CCc3sc(Nc4ncc(F)cn4)nc3-c3cn[nH]c32)CC1 [Compound 1-151, 4-(3-(2-((5-Fluoropyrimidin-2-yl)amino)-4,5-dihydropyrazolo[3,4-b]thiazolo[4,5-d]azepin-6(8H)-yl)propyl)thiomorpholine 1,1-dioxide]
223 | < 100 | CC1COCC(C)N1CCCN1CCc2sc(Nc3ncc(F)cn3)nc2-c2cn[nH]c21 (centres unmarked) [Compound 1-153]

Second part, the compound before the results:

SMILES | melting point [°C] | EC50 [1] [nM]
N#Cc1cccc(CN2CCc3sc(Nc4ncc(F)cn4)nc3-c3cn[nH]c32)c1 [Compound 1-1, 3-((2-(5-Fluoropyrimidin-2-ylamino)-4,5-dihydropyrazolo[3,4-b]thiazolo[4,5-d]azepin-6(7H)-yl)methyl)benzonitrile] | 282 to 284 | 100 to 1000
Fc1cnc(Nc2nc3c(s2)CCN(Cc2cccc(F)c2)c2[nH]ncc2-3)nc1 [Compound 1-2] | 265 to 270 | 1000 to 10000
Fc1cnc(Nc2nc3c(s2)CCN(Cc2cc(C4CC4)on2)c2[nH]ncc2-3)nc1 [Compound 1-4] | – | < 100
Fc1cnc(Nc2nc3c(s2)CCN(Cc2csc(C4CC4)n2)c2[nH]ncc2-3)nc1 [Compound 1-8] | 240 to 245 | 100 to 1000
Cc1ccnc(Nc2nc3c(s2)CCN(Cc2ccc(Cl)cn2)c2[nH]ncc2-3)n1 [Compound 1-10] | 165 to 168 | < 100
Fc1cnc(Nc2nc3c(s2)CCN(CC2CC(F)(F)C2)c2[nH]ncc2-3)nc1 [Compound 1-14] | > 280 | 100 to 1000
COC(C)(C)CN1CCc2sc(Nc3ncc(F)cn3)nc2-c2cn[nH]c21 [Compound 1-124] | 282 to 285 | 100 to 1000
Fc1cnc(Nc2nc3c(s2)CCN(C[C@@H]2CCCO2)c2[nH]ncc2-3)nc1 [Compound 1-126] | – | < 100
COCCN1CCc2sc(Nc3ncc(F)c(C)n3)nc2-c2cn[nH]c21 [Compound 1-129, N-(5-Fluoro-4-methylpyrimidin-2-yl)-6-(2-methoxyethyl)-4,5,6,8-tetrahydropyrazolo[3,4-b]thiazolo[4,5-d]azepin-2-amine] | 261 to 263 | < 100
CNCCCN1CCc2sc(Nc3ncc(F)cn3)nc2-c2cn[nH]c21 [Compound 1-130, N-(5-Fluoropyrimidin-2-yl)-6-(3-(methylamino)propyl)-4,5,6,8-tetrahydropyrazolo[3,4-b]thiazolo[4,5-d]azepin-2-amine] | – | 1000 to 10000
COC[C@H](C)N1CCc2sc(Nc3ncc(F)cn3)nc2-c2cn[nH]c21 [Compound 1-131, N-(5-Fluoropyrimidin-2-yl)-6-(2-methoxy-1(S)-methyl-ethyl)-4,5,6,8-tetrahydropyrazolo[3,4-b]thiazolo[4,5-d]azepin-2-amine] | 249 to 251 | < 100
OCCCN1CCc2sc(Nc3ncc(F)cn3)nc2-c2cn[nH]c21 [Compound 1-132, 3-(2-(5-Fluoropyrimidin-2-ylamino)-4,5-dihydropyrazolo[3,4-b]thiazolo[4,5-d]azepin-6(8H)-yl)propan-1-ol] | – | 100 to 1000
COCCOCCN1CCc2sc(Nc3ncc(F)cn3)nc2-c2cn[nH]c21 [Compound 1-133] | > 220 | < 100
Fc1cnc(Nc2nc3c(s2)CCN(Cc2ccc(N4CCOCC4)cn2)c2[nH]ncc2-3)nc1 [Compound 1-135, N-(5-Fluoropyrimidin-2-yl)-6-((5-morpholinopyridin-2-yl)methyl)-4,5,6,8-tetrahydropyrazolo[3,4-b]thiazolo[4,5-d]azepin-2-amine] | 240 | < 100
Cc1nc(CN2CCc3sc(Nc4ncc(F)cn4)nc3-c3c[nH]nc32)no1 [Compound 1-138, N-(5-Fluoropyrimidin-2-yl)-6-((5-methyl-1,2,4-oxadiazol-3-yl)methyl)-4,5,6,8-tetrahydropyrazolo[3,4-b]thiazolo[4,5-d]azepin-2-amine] | – | < 100
Fc1cnc(Nc2nc3c(s2)CCN(CCCN2CCOCC2)c2n[nH]cc2-3)nc1 [Compound 1-140, N-(5-Fluoropyrimidin-2-yl)-6-(3-morpholinopropyl)-4,5,6,8-tetrahydropyrazolo[3,4-b]thiazolo[4,5-d]azepin-2-amine] | – | < 100
CC(C)N1CCN(CCN2CCc3sc(Nc4ncc(F)cn4)nc3-c3cn[nH]c32)CC1 [Compound 1-141, N-(5-Fluoropyrimidin-2-yl)-6-(2-(4-isopropylpiperazin-1-yl)ethyl)-4,5,6,8-tetrahydropyrazolo[3,4-b]thiazolo[4,5-d]azepin-2-amine] | – | 1000 to 10000
Fc1cnc(Nc2nc3c(s2)CCN(CCCN2CCCCC2)c2[nH]ncc2-3)nc1 [Compound 1-144] | 227 | 100 to 1000
Cc1ccnc(Nc2nc3c(s2)CCN(CCCN2CCOCC2)c2[nH]ncc2-3)n1 [Compound 1-145] | 251 | < 100
Cc1ccnc(Nc2nc3c(s2)CCN(Cc2noc(C)n2)c2[nH]ncc2-3)n1 [Compound 1-146] | – | < 100
CC(C)c1nc(CN2CCc3sc(Nc4ncc(F)cn4)nc3-c3cn[nH]c32)no1 [Compound 1-147] | > 260 | < 100
Fc1cnc(Nc2nc3c(s2)CCN(CCCN2CCC(F)(F)CC2)c2[nH]ncc2-3)nc1 [Compound 1-148, 6-(3-(4,4-Difluoropiperidin-1-yl)propyl)-N-(5-fluoropyrimidin-2-yl)-4,5,6,8-tetrahydropyrazolo[3,4-b]thiazolo[4,5-d]azepin-2-amine] | 238 to 240 | 100 to 1000
Cc1ccnc(Nc2nc3c(s2)CCN(Cc2ncccn2)c2[nH]ncc2-3)n1 [Compound 1-152] | – | 100 to 1000
